Experimental data as given in patent US6365360B1, “Methods of identifying modulators of human IP prostaglandin receptor” (Merck Frosst Canada & Co., priority 1993, dated 2002).

How the values were obtained:
[1] = target: T1, human prostaglandin I2 (IP) receptor (Homo sapiens, UniProt P43119); assay: [3H]iloprost competition binding to membranes of pcDNAIamp-hIP transfected COS-M6 cells; details: for competition for [3H]iloprost specific binding to the hIP receptor: at a concentration of 30 μM; for IC50: read-out: IC50, competition for [3H]iloprost specific binding, 4 nM [3H]iloprost, COS-M6 membranes, pH 6.0, 45 min at 30° C.
T1 construct: A DNA molecule encoding the full length IP protein has been isolated and purified; expressed in transfected cells; host or cells: COS-M6 cells (membrane fraction), pcDNAIamp-hIP, DEAE-dextran transfection

[2] = target: T2, IP receptor (hIP cDNA) (Homo sapiens, UniProt P43119); assay: CFTR-mediated Cl- current in Xenopus oocytes co-injected with pcDNAIamp-IP and pcDNAIamp-CFTR (voltage clamp); format: cell-based; details: oocyte clamped at -60 mV, 48 h after injection
T2 construct: A DNA molecule encoding the full length IP protein has been isolated and purified; expressed in transfected cells; host or cells: Xenopus laevis oocytes, nuclear injection of pcDNAIamp-IP plus pcDNAIamp-CFTR
Description: FIG. 5A and 5B —Expression of the prostaglandin 12 receptor in IP cDNA-injected Xenopus oocytes is shown.
(§1) The voltage-clamp experiments shown here were performed 48 hr after nuclear injection and are representative of 6 separate experiments with oocytes from 3 different frogs.
(§2) Oocytes were taken from adult females of Xenopus laevis using standard surgical procedure (Colman, A., 1984 In: Transcription and Translation—A Practical Approach, IRL Press). To remove follicle cells, oocytes were treated for 2-3 h with freshly made collagenase (2 mg/ml, type 2, Worthington Biochemical Corp., Freehold, N.J.) in Ca^2+-free ND96 solution (ND96 in mM: NaCl 96, KCl 2, MgCl2 1, HEPES 5, Na-pyruvate 2.5, theophylline 0.5, gentamicin […], +1.8 CaCl2, pH 7.6). Defolliculated stage 5-6 oocytes were selected and maintained in ND96 solution. Oocyte nuclei were injected with 1.6 ng of pcDNAlamp-IP plus 2.5 ng of pcDNAIamp-CFTR and then incubated at 18° C. for 48 h before challenge with agonist. CFTR (cystic fibrosis transmembrane regulator, a cAMP dependent Cl^− channel) was co-expressed with IP receptor in these oocytes and served as a reporter of changes in intracellular cAMP levels. Functional activity was determined by measurement of Iloprost-induced CFTR-mediated Cl^− current. An oocyte was placed in a 0.5 ml perfusion chamber and voltage clamped at −60 mV (with microelectrodes of 0.5-2.0 MW resistance filled with 3 M KCl) using a Turbo TEC 01C amplifier (NPl Instruments, Germany). Ligand-containing solution was perfused and the current response was recorded.
(§3) This rank order of potency is consistent with that reported for the IP receptor [Coleman, et al., 1990. Comprehensive Medicinal Chemistry (Hansch, C., Sammes, P. G., Taylor, J. B., and Emmett, J. C., Eds) Vol. 3, pp. 643-714, Pergamon, Press, Oxford].

[3] = test system: endogenous IP receptors in oocytes; assay: Control oocytes injected with CFTR cDNA alone (voltage clamp); format: cell-based, Xenopus laevis; details: 100 nM
Description: The broken line represents the zero current level.
as §1, §2, §3

T2 sequence (P43119 whole entry): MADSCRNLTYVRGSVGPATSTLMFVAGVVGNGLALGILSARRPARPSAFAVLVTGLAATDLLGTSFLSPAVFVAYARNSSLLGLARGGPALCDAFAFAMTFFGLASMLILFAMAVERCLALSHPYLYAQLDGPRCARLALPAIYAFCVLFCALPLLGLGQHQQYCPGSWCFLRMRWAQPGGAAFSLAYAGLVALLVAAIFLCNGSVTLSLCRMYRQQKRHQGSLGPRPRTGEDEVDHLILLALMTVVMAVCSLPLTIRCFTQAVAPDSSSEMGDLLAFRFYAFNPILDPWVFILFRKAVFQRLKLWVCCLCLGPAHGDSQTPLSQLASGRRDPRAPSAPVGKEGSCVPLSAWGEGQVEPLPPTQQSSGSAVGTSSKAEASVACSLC
T1 sequence (P43119 whole entry): as above

Structure (SMILES) | competition for [3H]iloprost specific binding to the hIP receptor [1] | CFTR-mediated Cl- current response ([2]; 100 nM) | current response in control (CFTR alone injected) oocytes [3] | IC50 [1] [µM] | CFTR-mediated Cl- current response ([2]; perfusion of 1-100 nM)
CCCCC[C@H](O)/C=C/[C@@H]1[C@@H](C/C=C\CCCC(=O)O)[C@@H](O)C[C@H]1O [PGF2α] |  |  |  | ~10 | 
CCCCC[C@H](O)/C=C/[C@@H]1[C@@H](C/C=C\CCCC(=O)O)[C@H]2CO[C@@H]1C2 [U46619] | essentially inactive |  |  |  | 

The next lines start with the values.

competition for [3H]iloprost specific binding to the hIP receptor [1] | CFTR-mediated Cl- current response ([2]; 100 nM) | current response in control (CFTR alone injected) oocytes [3] | IC50 [1] [µM] | CFTR-mediated Cl- current response ([2]; perfusion of 1-100 nM) | Structure (SMILES)
essentially inactive | not detectable | no responses |  |  | CCCCC[C@H](O)/C=C/[C@H]1C(=O)C[C@H](O)[C@@H]1C/C=C\CCCC(=O)O [PGD2]
 | not detectable | no responses | ~10 |  | CCCCC[C@H](O)/C=C/[C@H]1[C@H](O)CC(=O)[C@@H]1C/C=C\CCCC(=O)O [PGE2]
 |  | no responses |  | prominent current responses | CC#CCC(C)[C@H](O)/C=C/[C@@H]1[C@H]2C/C(=C/CCCC(=O)O)C[C@H]2C[C@H]1O (stereo partly shown) [iloprost]
